Reference: ChEMBL document CHEMBL1909046, “DrugMatrix in vitro pharmacology data”

target: Mitogen-activated protein kinase 3 (Homo sapiens, UniProt P27361); test: DRUGMATRIX: Protein Serine/Threonine Kinase, ERK1 enzyme inhibition (substrate: Myelin Basic Protein); parameters: species or system Escherichia coli; settings: Not Active = under 50% inhibition at 10 µM
Sequence (P27361 whole entry): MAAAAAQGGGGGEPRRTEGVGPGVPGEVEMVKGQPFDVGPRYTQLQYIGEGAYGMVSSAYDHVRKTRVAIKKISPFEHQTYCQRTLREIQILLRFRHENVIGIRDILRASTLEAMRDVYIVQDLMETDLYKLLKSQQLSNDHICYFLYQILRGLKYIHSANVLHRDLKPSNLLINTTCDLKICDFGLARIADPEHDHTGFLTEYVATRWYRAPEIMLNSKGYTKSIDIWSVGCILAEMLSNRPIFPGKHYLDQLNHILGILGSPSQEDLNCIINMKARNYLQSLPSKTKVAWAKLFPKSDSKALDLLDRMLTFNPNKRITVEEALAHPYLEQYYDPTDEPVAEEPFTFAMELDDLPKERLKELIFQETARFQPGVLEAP

Question: `O=c1[nH]c(=O)n(C2CCCO2)cc1F` (stereo not given) [TEGAFUR] was tested. Which IC50 did it give?
Answer: Not Active

Question: Which IC50 does the source give for `CC(=N)S` [THIOACETAMIDE] here?
Answer: Not Active

Question: Which IC50 does the source give for `Cc1ccc(C(=O)c2ccc(CC(=O)O)n2C)cc1` [TOLMETIN] here?
Answer: Not Active

Question: For `CC(=O)OCC(COC(C)=O)OC(C)=O` [TRIACETIN], which IC50 is on record?
Answer: Not Active

Question: For `CN1CCN(CCCN2c3ccccc3Sc3ccc(C(F)(F)F)cc32)CC1` [TRIFLUOPERAZINE], which IC50 is on record?
Answer: Not Active

Question: For TRANSPLATIN, which IC50 is on record?
Answer: Not Active

Question: What about the Ki of the same compound?
Answer: Not Active

target: T1, Cholecystokinin receptor type A (Homo sapiens, UniProt P32238); test: not given; format: cell membranes, Membrane; settings: 1321-n1; further: in other assays of this panel Not Active means under 50% inhibition at 10 µM
T1 sequence (P32238 whole entry): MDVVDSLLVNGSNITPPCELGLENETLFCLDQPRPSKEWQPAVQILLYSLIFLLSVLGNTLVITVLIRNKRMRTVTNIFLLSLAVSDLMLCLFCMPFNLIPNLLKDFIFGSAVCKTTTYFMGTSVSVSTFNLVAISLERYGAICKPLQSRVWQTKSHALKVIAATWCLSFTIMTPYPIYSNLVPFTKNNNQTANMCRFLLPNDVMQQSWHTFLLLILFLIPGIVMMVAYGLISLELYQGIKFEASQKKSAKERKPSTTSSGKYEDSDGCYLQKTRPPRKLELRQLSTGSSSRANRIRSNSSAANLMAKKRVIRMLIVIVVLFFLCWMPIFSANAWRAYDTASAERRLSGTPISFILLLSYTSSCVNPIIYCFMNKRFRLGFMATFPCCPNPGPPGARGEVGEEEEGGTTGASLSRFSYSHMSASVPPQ

Question: Which IC50 does the source give for `C[S+]([O-])c1ccc(-c2nc(-c3ccncc3)c(-c3ccc(F)cc3)[nH]2)cc1` (stereo not given) [SB-203580] here?
Answer: Not Active

Question: For `O=c1[nH]c(=O)n(C2CCCO2)cc1F` (stereo not given) [TEGAFUR], which IC50 is on record?
Answer: Not Active

Question: How did the IC50 turn out when `CC(=N)S` [THIOACETAMIDE] was run?
Answer: Not Active

Question: Which IC50 does the source give for `Cc1ccc(C(=O)c2ccc(CC(=O)O)n2C)cc1` [TOLMETIN] here?
Answer: Not Active

Question: Which IC50 does the source give for `CC(=O)OCC(COC(C)=O)OC(C)=O` [TRIACETIN] here?
Answer: Not Active

Question: Which IC50 does the source give for `CN1CCN(CCCN2c3ccccc3Sc3ccc(C(F)(F)F)cc32)CC1` [TRIFLUOPERAZINE] here?
Answer: Not Active

Question: With TRANSPLATIN as the compound, how does the IC50 read?
Answer: Not Active

Question: What about the Ki of the same compound?
Answer: Not Active

target: C-C chemokine receptor type 5 (Homo sapiens, UniProt P51681); test: not given; format: cell membranes, Membrane; settings: hek293; further: in other assays of this panel Not Active means under 50% inhibition at 10 µM
Sequence (P51681 whole entry): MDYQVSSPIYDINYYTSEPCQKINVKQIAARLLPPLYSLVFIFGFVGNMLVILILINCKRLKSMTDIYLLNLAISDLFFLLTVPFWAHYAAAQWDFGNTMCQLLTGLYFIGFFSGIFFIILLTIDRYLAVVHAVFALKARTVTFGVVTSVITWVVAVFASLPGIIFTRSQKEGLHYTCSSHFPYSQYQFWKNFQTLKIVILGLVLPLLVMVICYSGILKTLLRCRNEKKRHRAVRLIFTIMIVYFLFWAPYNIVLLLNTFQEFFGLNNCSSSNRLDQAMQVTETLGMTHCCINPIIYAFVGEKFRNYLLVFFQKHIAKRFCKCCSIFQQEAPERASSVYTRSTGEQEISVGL

Question: `C[S+]([O-])c1ccc(-c2nc(-c3ccncc3)c(-c3ccc(F)cc3)[nH]2)cc1` (stereo not given) [SB-203580] was tested. Which IC50 did it give?
Answer: Not Active

Question: For `O=c1[nH]c(=O)n(C2CCCO2)cc1F` (stereo not given) [TEGAFUR], which IC50 is on record?
Answer: Not Active

Question: `CC(=N)S` [THIOACETAMIDE] was tested. Which IC50 did it give?
Answer: Not Active

Question: With `Cc1ccc(C(=O)c2ccc(CC(=O)O)n2C)cc1` [TOLMETIN] as the compound, how does the IC50 read?
Answer: Not Active

Question: For `CC(=O)OCC(COC(C)=O)OC(C)=O` [TRIACETIN], which IC50 is on record?
Answer: Not Active

Question: How did the IC50 turn out when `CN1CCN(CCCN2c3ccccc3Sc3ccc(C(F)(F)F)cc32)CC1` [TRIFLUOPERAZINE] was run?
Answer: Not Active

Question: Which results are given for TRANSPLATIN?
Answer: IC50: Not Active; Ki: Not Active

target: T2, Interstitial collagenase (Homo sapiens, UniProt P03956); test: biochemical; format: tissue-based, Rheumatoid synovial fibroblasts; settings: not given;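 further: MMP-1 enzyme inhibition assay using a peptide substrate; in other assays of this panel Not Active means under 50% inhibition at 10 µM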
T2 sequence (P03956 whole entry): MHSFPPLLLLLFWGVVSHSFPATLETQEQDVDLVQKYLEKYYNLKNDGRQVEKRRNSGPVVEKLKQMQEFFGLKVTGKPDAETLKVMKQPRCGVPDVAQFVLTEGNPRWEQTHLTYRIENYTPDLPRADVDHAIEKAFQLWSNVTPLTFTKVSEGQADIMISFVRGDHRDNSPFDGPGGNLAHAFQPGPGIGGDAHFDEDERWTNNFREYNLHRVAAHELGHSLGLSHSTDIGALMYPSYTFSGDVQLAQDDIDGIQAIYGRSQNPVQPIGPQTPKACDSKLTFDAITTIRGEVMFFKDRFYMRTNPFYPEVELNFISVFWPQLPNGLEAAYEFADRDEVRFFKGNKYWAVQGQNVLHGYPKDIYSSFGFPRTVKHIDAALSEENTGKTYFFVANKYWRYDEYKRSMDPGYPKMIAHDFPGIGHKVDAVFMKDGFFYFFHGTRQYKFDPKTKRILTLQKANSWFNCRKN

Question: Which IC50 does the source give for `C[S+]([O-])c1ccc(-c2nc(-c3ccncc3)c(-c3ccc(F)cc3)[nH]2)cc1` (stereo not given) [SB-203580] here?
Answer: Not Active

Question: With `O=c1[nH]c(=O)n(C2CCCO2)cc1F` (stereo not given) [TEGAFUR] as the compound, how does the IC50 read?
Answer: Not Active

Question: Which IC50 does the source give for `CC(=N)S` [THIOACETAMIDE] here?
Answer: Not Active

Question: Which IC50 does the source give for `Cc1ccc(C(=O)c2ccc(CC(=O)O)n2C)cc1` [TOLMETIN] here?
Answer: Not Active

Question: With `CC(=O)OCC(COC(C)=O)OC(C)=O` [TRIACETIN] as the compound, how does the IC50 read?
Answer: Not Active

Question: For `CN1CCN(CCCN2c3ccccc3Sc3ccc(C(F)(F)F)cc32)CC1` [TRIFLUOPERAZINE], which IC50 is on record?
Answer: Not Active

Question: With TRANSPLATIN as the compound, how does the IC50 read?
Answer: Not Active

Question: And the Ki?
Answer: Not Active

target: T3, Alpha-2C adrenergic receptor (Homo sapiens, UniProt P18825); test: DRUGMATRIX: Adrenergic Alpha-2C radioligand binding (ligand: [3H] MK-912); format: cell membranes, Sf9, Membrane; settings: sf9
T3 sequence (P18825 whole entry): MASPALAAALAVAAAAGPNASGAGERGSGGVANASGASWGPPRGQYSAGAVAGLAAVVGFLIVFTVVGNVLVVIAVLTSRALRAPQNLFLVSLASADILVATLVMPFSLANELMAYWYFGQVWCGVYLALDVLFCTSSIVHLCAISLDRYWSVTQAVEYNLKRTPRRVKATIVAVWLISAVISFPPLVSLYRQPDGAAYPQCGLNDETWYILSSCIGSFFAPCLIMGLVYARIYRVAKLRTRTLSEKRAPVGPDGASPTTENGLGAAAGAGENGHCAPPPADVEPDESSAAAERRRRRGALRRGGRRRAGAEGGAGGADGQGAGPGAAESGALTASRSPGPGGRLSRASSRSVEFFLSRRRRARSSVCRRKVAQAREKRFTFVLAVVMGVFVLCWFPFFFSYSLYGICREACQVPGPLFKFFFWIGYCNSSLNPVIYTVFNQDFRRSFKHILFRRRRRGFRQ

Question: For `C[S+]([O-])c1ccc(-c2nc(-c3ccncc3)c(-c3ccc(F)cc3)[nH]2)cc1` (stereo not given) [SB-203580], which IC50 is on record?
Answer: Not Active

Question: `O=c1[nH]c(=O)n(C2CCCO2)cc1F` (stereo not given) [TEGAFUR] was tested. Which IC50 did it give?
Answer: Not Active

Question: `CC(=N)S` [THIOACETAMIDE] was tested. Which IC50 did it give?
Answer: Not Active

Question: With `Cc1ccc(C(=O)c2ccc(CC(=O)O)n2C)cc1` [TOLMETIN] as the compound, how does the IC50 read?
Answer: Not Active

Question: Which IC50 does the source give for `CC(=O)OCC(COC(C)=O)OC(C)=O` [TRIACETIN] here?
Answer: Not Active

Question: How did the IC50 turn out when `CN1CCN(CCCN2c3ccccc3Sc3ccc(C(F)(F)F)cc32)CC1` [TRIFLUOPERAZINE] was run?
Answer: Not Active

Question: How did the IC50 turn out when TRANSPLATIN was run?
Answer: Not Active

Question: And the Ki?
Answer: Not Active

target: 5-hydroxytryptamine receptor 2B (Homo sapiens, UniProt P41595); test: not given; format: cell membranes, CHO-K1, Membrane; settings: cho-k1; further: in other assays of this panel Not Active means under 50% inhibition at 10 µM
Sequence (P41595 whole entry): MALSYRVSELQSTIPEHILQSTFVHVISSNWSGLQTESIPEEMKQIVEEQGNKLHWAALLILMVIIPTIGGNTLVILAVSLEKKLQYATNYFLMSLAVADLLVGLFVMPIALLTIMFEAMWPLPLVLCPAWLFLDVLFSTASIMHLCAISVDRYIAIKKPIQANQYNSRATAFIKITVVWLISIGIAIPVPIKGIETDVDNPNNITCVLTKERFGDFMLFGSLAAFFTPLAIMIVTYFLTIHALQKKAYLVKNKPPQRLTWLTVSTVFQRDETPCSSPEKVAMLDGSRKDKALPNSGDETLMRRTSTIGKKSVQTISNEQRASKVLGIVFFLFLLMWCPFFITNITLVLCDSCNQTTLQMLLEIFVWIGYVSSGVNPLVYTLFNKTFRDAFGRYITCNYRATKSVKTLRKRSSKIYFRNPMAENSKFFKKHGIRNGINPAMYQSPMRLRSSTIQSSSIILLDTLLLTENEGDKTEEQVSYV

Question: With `C[S+]([O-])c1ccc(-c2nc(-c3ccncc3)c(-c3ccc(F)cc3)[nH]2)cc1` (stereo not given) [SB-203580] as the compound, how does the IC50 read?
Answer: Not Active

Question: With `O=c1[nH]c(=O)n(C2CCCO2)cc1F` (stereo not given) [TEGAFUR] as the compound, how does the IC50 read?
Answer: Not Active

Question: Which IC50 does the source give for `CC(=N)S` [THIOACETAMIDE] here?
Answer: Not Active

Question: `Cc1ccc(C(=O)c2ccc(CC(=O)O)n2C)cc1` [TOLMETIN] was tested. Which IC50 did it give?
Answer: Not Active

Question: With `CC(=O)OCC(COC(C)=O)OC(C)=O` [TRIACETIN] as the compound, how does the IC50 read?
Answer: Not Active

Question: With `CN1CCN(CCCN2c3ccccc3Sc3ccc(C(F)(F)F)cc32)CC1` [TRIFLUOPERAZINE] as the compound, how does the IC50 read?
Answer: Not Active

Question: How did the IC50 turn out when TRANSPLATIN was run?
Answer: Not Active

Question: What about the Ki of the same compound?
Answer: Not Active

target: T4, 5-hydroxytryptamine receptor 1A (Rattus norvegicus, UniProt P19327); test: not given; format: cell membranes, CHO-K1, Membrane; settings: cho-k1; further: in other assays of this panel Not Active means under 50% inhibition at 10 µM
T4 sequence (P19327 whole entry): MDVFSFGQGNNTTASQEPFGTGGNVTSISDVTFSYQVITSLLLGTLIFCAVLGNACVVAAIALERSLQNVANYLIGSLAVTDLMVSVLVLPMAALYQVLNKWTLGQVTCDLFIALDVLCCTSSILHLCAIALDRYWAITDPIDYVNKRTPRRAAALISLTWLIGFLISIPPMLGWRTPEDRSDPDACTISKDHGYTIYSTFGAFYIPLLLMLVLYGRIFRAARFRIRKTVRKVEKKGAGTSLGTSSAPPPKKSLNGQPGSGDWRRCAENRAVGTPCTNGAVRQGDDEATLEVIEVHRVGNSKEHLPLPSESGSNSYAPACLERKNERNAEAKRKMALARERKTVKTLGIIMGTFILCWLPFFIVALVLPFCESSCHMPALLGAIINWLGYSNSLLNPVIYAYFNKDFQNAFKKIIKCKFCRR

Question: With `C[S+]([O-])c1ccc(-c2nc(-c3ccncc3)c(-c3ccc(F)cc3)[nH]2)cc1` (stereo not given) [SB-203580] as the compound, how does the IC50 read?
Answer: Not Active

Question: `O=c1[nH]c(=O)n(C2CCCO2)cc1F` (stereo not given) [TEGAFUR] was tested. Which IC50 did it give?
Answer: Not Active

Question: `CC(=N)S` [THIOACETAMIDE] was tested. Which IC50 did it give?
Answer: Not Active

Question: `Cc1ccc(C(=O)c2ccc(CC(=O)O)n2C)cc1` [TOLMETIN] was tested. Which IC50 did it give?
Answer: Not Active

Question: For `CC(=O)OCC(COC(C)=O)OC(C)=O` [TRIACETIN], which IC50 is on record?
Answer: Not Active

Question: Which IC50 does the source give for `CN1CCN(CCCN2c3ccccc3Sc3ccc(C(F)(F)F)cc32)CC1` [TRIFLUOPERAZINE] here?
Answer: Not Active

Question: Which IC50 does the source give for TRANSPLATIN here?
Answer: Not Active

Question: And the Ki?
Answer: Not Active
